Reference: ChEMBL document CHEMBL3046292, “The effects of luteolin on phenoloxidase and the growth of Spodoptera exigua (Hubner) larvae (Lepidoptera: Noctuidae)” (J Pestic Sci, 2010)
≈ marks a conversion by molar mass, not a printed value. Calls of active or inactive are those of the source. The calls are words filed in the database; no cut-off is given here.

How the values were obtained:
[1] = system: Spodoptera exigua; test: Insecticidal activity against third-instar Spodoptera exigua larvae assessed as pupation at 0.8 g/l (reference value: 96.67 +/- 1.40%); assay type: functional
[2] = system: Spodoptera exigua; test: Insecticidal activity against third-instar Spodoptera exigua larvae assessed as pupation at 0.4 g/l (reference value: 96.67 +/- 1.40%); assay type: functional
[3] = system: Spodoptera exigua; test: Insecticidal activity against third-instar Spodoptera exigua larvae assessed as pupation at 0.2 g/l (reference value: 96.67 +/- 1.40%); assay type: functional
[4] = system: Spodoptera exigua; test: Insecticidal activity against third-instar Spodoptera exigua larvae assessed as pupation at 0.1 g/l (reference value: 96.67 +/- 1.40%); assay type: functional
[5] = system: Spodoptera exigua; test: Insecticidal activity against third-instar Spodoptera exigua larvae assessed as per pupa weight at 1.6 g/l by pupa weight inhibition assay (reference value: 0.1054 +/- 0.01 g/pupae); assay type: functional
[6] = system: Spodoptera exigua; test: Insecticidal activity against third-instar Spodoptera exigua larvae assessed as per pupa weight at 0.8 g/l by pupa weight inhibition assay (reference value: 0.1054 +/- 0.01 g/pupae); assay type: functional
[7] = system: Spodoptera exigua; test: Insecticidal activity against third-instar Spodoptera exigua larvae assessed as per pupa weight at 0.4 g/l by pupa weight inhibition assay (reference value: 0.1054 +/- 0.01 g/pupae); assay type: functional
[8] = system: Spodoptera exigua; test: Insecticidal activity against third-instar Spodoptera exigua larvae assessed as per pupa weight at 0.2 g/l by pupa weight inhibition assay (reference value: 0.1054 +/- 0.01 g/pupae); assay type: functional
[9] = system: Spodoptera exigua; test: Insecticidal activity against third-instar Spodoptera exigua larvae assessed as per pupa weight at 0.1 g/l by pupa weight inhibition assay (reference value: 0.1054 +/- 0.01 g/pupae); assay type: functional
[10] = system: Spodoptera exigua; test: Insecticidal activity against third-instar Spodoptera exigua larvae assessed as mortality at 8 g/l measured after 9 days; assay type: functional; settings: 216 h
[11] = system: Spodoptera exigua; test: Insecticidal activity against third-instar Spodoptera exigua larvae assessed as mortality at 4 g/l measured after 9 days; assay type: functional; settings: 216 h
[12] = system: Spodoptera exigua; test: Insecticidal activity against third-instar Spodoptera exigua larvae assessed as mortality at 2 g/l measured after 9 days; assay type: functional; settings: 216 h
[13] = system: Spodoptera exigua; test: Insecticidal activity against third-instar Spodoptera exigua larvae assessed as mortality at 16 g/l measured after 7 days; assay type: functional; settings: 168 h
[14] = system: Spodoptera exigua; test: Insecticidal activity against third-instar Spodoptera exigua larvae assessed as mortality at 8 g/l measured after 7 days; assay type: functional; settings: 168 h
[15] = system: Spodoptera exigua; test: Insecticidal activity against third-instar Spodoptera exigua larvae assessed as mortality at 4 g/l measured after 7 days; assay type: functional; settings: 168 h
[16] = system: Spodoptera exigua; test: Insecticidal activity against third-instar Spodoptera exigua larvae assessed as mortality at 2 g/l measured after 7 days; assay type: functional; settings: 168 h
[17] = system: Spodoptera exigua; test: Insecticidal activity against third-instar Spodoptera exigua larvae assessed as mortality at 16 g/l measured after 5 days; assay type: functional; settings: 120 h
[18] = system: Spodoptera exigua; test: Insecticidal activity against third-instar Spodoptera exigua larvae assessed as mortality at 8 g/l measured after 5 days; assay type: functional; settings: 120 h
[19] = system: Spodoptera exigua; test: Insecticidal activity against third-instar Spodoptera exigua larvae assessed as mortality at 4 g/l measured after 5 days; assay type: functional; settings: 120 h
[20] = system: Spodoptera exigua; test: Insecticidal activity against third-instar Spodoptera exigua larvae assessed as mortality at 2 g/l measured after 5 days; assay type: functional; settings: 120 h
[21] = system: Spodoptera exigua; test: Insecticidal activity against third-instar Spodoptera exigua larvae assessed as mortality at 16 g/l measured after 3 days; assay type: functional; settings: 72 h
[22] = system: Spodoptera exigua; test: Insecticidal activity against third-instar Spodoptera exigua larvae assessed as mortality at 8 g/l measured after 3 days; assay type: functional; settings: 72 h
[23] = system: Spodoptera exigua; test: Insecticidal activity against third-instar Spodoptera exigua larvae assessed as mortality at 4 g/l measured after 3 days; assay type: functional; settings: 72 h
[24] = system: Spodoptera exigua; test: Insecticidal activity against third-instar Spodoptera exigua larvae assessed as mortality at 2 g/l measured after 3 days; assay type: functional; settings: 72 h
[25] = target: T1, Phenol oxidase (Plutella xylostella) (UniProt B5U2Z5); test: In vivo inhibition of Spodoptera exigua larvae phenoloxidase
T1 sequence (whole entry): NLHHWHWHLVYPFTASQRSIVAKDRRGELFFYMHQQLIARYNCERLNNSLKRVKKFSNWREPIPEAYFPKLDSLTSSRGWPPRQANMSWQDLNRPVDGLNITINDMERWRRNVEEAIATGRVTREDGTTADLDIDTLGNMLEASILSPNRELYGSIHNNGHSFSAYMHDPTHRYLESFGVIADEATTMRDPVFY

[26] = target: T1, Phenol oxidase (Plutella xylostella); test: Inhibition of Spodoptera exigua larvae phenoloxidase assessed as remaining activity at 0.45 mmol/l
[27] = target: T1, Phenol oxidase (Plutella xylostella); test: Inhibition of Spodoptera exigua larvae phenoloxidase assessed as remaining activity at 0.15 mmol/l
[28] = system: Spodoptera exigua; test: Insecticidal activity against third-instar Spodoptera exigua larvae assessed as mortality treated after 11 days; assay type: functional; settings: 264 h
[29] = system: Spodoptera exigua; test: Insecticidal activity against third-instar Spodoptera exigua larvae assessed as mortality treated after 9 days; assay type: functional; settings: 216 h
[30] = system: Spodoptera exigua; test: Insecticidal activity against third-instar Spodoptera exigua larvae assessed as mortality treated after 7 days; assay type: functional; settings: 168 h
[31] = system: Spodoptera exigua; test: Insecticidal activity against third-instar Spodoptera exigua larvae assessed as eclosion at 1.6 g/l (reference value: 96.67 +/- 1.40%); assay type: functional
[32] = system: Spodoptera exigua; test: Insecticidal activity against third-instar Spodoptera exigua larvae assessed as eclosion at 0.8 g/l (reference value: 96.67 +/- 1.40%); assay type: functional
[33] = system: Spodoptera exigua; test: Insecticidal activity against third-instar Spodoptera exigua larvae assessed as eclosion at 0.4 g/l (reference value: 96.67 +/- 1.40%); assay type: functional
[34] = system: Spodoptera exigua; test: Insecticidal activity against third-instar Spodoptera exigua larvae assessed as eclosion at 0.2 g/l (reference value: 96.67 +/- 1.40%); assay type: functional
[35] = system: Spodoptera exigua; test: Insecticidal activity against third-instar Spodoptera exigua larvae assessed as eclosion at 0.1 g/l (reference value: 96.67 +/- 1.40%); assay type: functional
[36] = system: Spodoptera exigua; test: Insecticidal activity against third-instar Spodoptera exigua larvae assessed as pupation at 1.6 g/l (reference value: 96.67 +/- 1.40%); assay type: functional
[37] = system: Spodoptera exigua; test: Insecticidal activity against third-instar Spodoptera exigua larvae assessed as inhibition of body weight increase at 16 g/l measured from 24 hr to 48 hr; assay type: functional
[38] = system: Spodoptera exigua; test: Insecticidal activity against third-instar Spodoptera exigua larvae assessed as inhibition of body weight increase at 8 g/l measured from 24 hr to 48 hr; assay type: functional
[39] = system: Spodoptera exigua; test: Insecticidal activity against third-instar Spodoptera exigua larvae assessed as inhibition of body weight increase at 4 g/l measured from 24 hr to 48 hr; assay type: functional
[40] = system: Spodoptera exigua; test: Insecticidal activity against third-instar Spodoptera exigua larvae assessed as inhibition of body weight increase at 2 g/l measured from 24 hr to 48 hr; assay type: functional
[41] = system: Spodoptera exigua; test: Insecticidal activity against third-instar Spodoptera exigua larvae assessed as inhibition of body weight increase at 1 g/l measured from 24 hr to 48 hr; assay type: functional
[42] = system: Spodoptera exigua; test: Insecticidal activity against third-instar Spodoptera exigua larvae assessed as mortality treated after 5 days; assay type: functional; settings: 120 h
[43] = system: Spodoptera exigua; test: Insecticidal activity against third-instar Spodoptera exigua larvae assessed as mortality at 16 g/l measured after 11 days; assay type: functional; settings: 264 h
[44] = system: Spodoptera exigua; test: Insecticidal activity against third-instar Spodoptera exigua larvae assessed as mortality at 8 g/l measured after 11 days; assay type: functional; settings: 264 h
[45] = system: Spodoptera exigua; test: Insecticidal activity against third-instar Spodoptera exigua larvae assessed as mortality at 4 g/l measured after 11 days; assay type: functional; settings: 264 h
[46] = system: Spodoptera exigua; test: Insecticidal activity against third-instar Spodoptera exigua larvae assessed as mortality at 2 g/l measured after 11 days; assay type: functional; settings: 264 h
[47] = system: Spodoptera exigua; test: Insecticidal activity against third-instar Spodoptera exigua larvae assessed as mortality at 16 g/l measured after 9 days; assay type: functional; settings: 216 h

## O=c1cc(-c2ccc(O)c(O)c2)oc2cc(O)cc(O)c12 [LUTEOLIN]
[1]
  Activity: 53.33%
[2]
  Activity: 70%
[3]
  Activity: 90%
[4]
  Activity: 96.67%
[5]
  Activity: 0.0647 g
[6]
  Activity: 0.0743 g
[7]
  Activity: 0.0798 g
[8]
  Activity: 0.0898 g
[9]
  Activity: 0.0905 g
[10]
  mortality at 8000 µg/mL: 72.9%
[11]
  mortality at 4000 µg/mL: 57.4%
[12]
  mortality at 2000 µg/mL: 33.8%
[13]
  mortality at 16000 µg/mL: 74.5%
[14]
  mortality at 8000 µg/mL: 57.7%
[15]
  mortality at 4000 µg/mL: 48.5%
[16]
  mortality at 2000 µg/mL: 26.3%
[17]
  mortality at 16000 µg/mL: 60.6%
[18]
  mortality at 8000 µg/mL: 47.3%
[19]
  mortality at 4000 µg/mL: 38%
[20]
  mortality at 2000 µg/mL: 15.8%
[21]
  mortality at 16000 µg/mL: 33.2%
[22]
  mortality at 8000 µg/mL: 29.8%
[23]
  mortality at 4000 µg/mL: 23.5%
[24]
  mortality at 2000 µg/mL: 10.1%
[25]
  inhibition: Active
[26]
  Activity: 45.3%
[27]
  Activity: 67.2%
[28]
  LC50: 2530 µg/mL (≈ 8.84 mM)
[29]
  LC50: 3540 µg/mL (≈ 12.4 mM)
[30]
  LC50: 5560 µg/mL (≈ 19.4 mM)
[31]
  Activity: 36.67%
[32]
  Activity: 43.33%
[33]
  Activity: 66.67%
[34]
  Activity: 83.33%
[35]
  Activity: 86.67%
[36]
  Activity: 36.67%
[37]
  inhibition at 16000 µg/mL: 66.8%
[38]
  inhibition at 8000 µg/mL: 56.8%
[39]
  inhibition at 4000 µg/mL: 49.6%
[40]
  inhibition at 2000 µg/mL: 42.7%
[41]
  inhibition at 1000 µg/mL: 38%
[42]
  LC50: 8970 µg/mL (≈ 31.3 mM)
[43]
  mortality at 16000 µg/mL: 90.5%
[44]
  mortality at 8000 µg/mL: 77.7%
[45]
  mortality at 4000 µg/mL: 61%
[46]
  mortality at 2000 µg/mL: 42.6%
[47]
  mortality at 16000 µg/mL: 84.1%
